Columns and labels:
SW480 cells = assay: Neutral red uptake (NRU) cell viability assay, 72 h; format: cell-based, human; conditions: SW480, 72 h of exposition
Source text: (§1) The prenylflavonoids and NAR were pre-dissolved in DMSO, while 5-FU, IRT and OxPt were pre-dissolved in distilled water. […] During screening for antiproliferative effects, SW480, SW620, and CaCo-2 were exposed to various concentrations of individual compounds in culture medium: XH, IXH, 6-PN and 8-PN (1–100 μmol/L), NAR (1–200 µmol/L), 5-FU and IRT (0.1–100 µmol/L), and OxPt (0.1–25 µmol/L). The cells cultured in medium with 0.1% DMSO or 0.2% DMSO (for 8-PN only) were used as untreated control samples. In the case of OxPt, the untreated control sample contained cells cultured in medium only. The cells treated with 10% DMSO served as a positive control. Neutral red uptake (NRU) assay was used to determine the number of viable cells after 72 h of exposition. The effect of prenylflavonoids and NAR on 5-FU, IRT or OxPt efficacy was evaluated using CalcuSyn (ver. 1.1) software.
(§2) In the NRU assay, the cells were cultured in 96-well plates (SW480 and SW620: 2500 cells/well; CaCo-2 cells: 200 cells/well) and exposed to the tested compounds for 72 h. Thereafter, the medium was removed and 100 μL of neutral red-containing medium was added into each well and the plates were incubated at 37 °C for an additional 3 h. Then the cells were washed with 100 μL of PBS and fixed in a solution of 0.5% formaldehyde/1% calcium chloride for 15 minutes. The neutral red dye was extracted from the viable cells with a solvent (50% ethanol/1% acetic acid) by shaking for 30 min at room temperature. The absorbance of solubilized dye was measured using the spectrophotometer Infinite M200 (Tecan, Männedorf, Switzerland) at 540 nm. Each sample was assayed in six parallels and three independent experiments were performed. The viabilities of treated cells were expressed as a percentage of untreated controls (100%).
(§3) All calculations were done using Microsoft Excel and GraphPad Prism 7.03 (GraphPad Software, La Jolla, CA, USA). All values were expressed as mean ± S.D. of a given number of experiments. Statistical significance (evaluated using a one-way ANOVA with Dunett’s test) was acceptable to a level of p < 0.05. The concentration inducing a 50% decrease of cell viability as compared to control (IC50) was calculated using GraphPad Prism 7.03—nonlinear regression.

SW620 cells [1] = assay: as above; format: cell-based, human
Source text: as §1, §2, §3

[2] = tested on: colorectal cancer cell lines SW480, SW620 and CaCo-2; assay: Antiproliferative effect (NRU assay) across colorectal cancer cell lines; format: cell-based; conditions: Homo sapiens; proliferating colon cancer cells (SW480, SW620, CaCo-2), 72 h; read-out: IC50 range over cell lines
Source text: as §1, with “Neutral red uptake (NRU) assay was used to determine the number of viable cells after 72 h of exposition.” left out
In the NRU assay, the cells were cultured in 96-well plates (SW480 and SW620: 2500 cells/well; CaCo-2 cells: 200 cells/well) and exposed to the tested compounds for 72 h. […] The absorbance of solubilized dye was measured using the spectrophotometer Infinite M200 (Tecan, Männedorf, Switzerland) at 540 nm. […] The viabilities of treated cells were expressed as a percentage of untreated controls (100%).
All calculations were done using Microsoft Excel and GraphPad Prism 7.03 (GraphPad Software, La Jolla, CA, USA). All values were expressed as mean ± S.D. of a given number of experiments. […]

[3] = tested on: caspases-3/7 in SW620 cells; assay: Caspase-Glo assay, effector caspases-3/7 activity; format: cell-based, human; conditions: for Caspase-3/7 activity, combination with 5-FU / Caspase-3/7 activity, combination with IRT / Caspase-3/7 activity, combination with OxPt: SW620, 24-hour incubation, compared to cytostatic alone; for Induction of caspases-3/7 activity: SW620, compound at IC50, 24-h exposure
Method: (§4) The activities of initiator caspases-8 and -9 and effector caspases-3/7 were assayed using Caspase-Glo Assays (Promega, Madison, USA). The SW620 cells (seeded in a […]) were cultivated in 12-well plates. […] The untreated control cells were incubated in medium containing only 0.1% DMSO. The lysates were collected into microtubes. Caspase-8, Caspase-9 and Caspases-3/7 reagents were prepared according to the manufacturer’s instructions. The lysates (25 μL in each well) were transferred into a white-walled 384-well-plate for the luminometer, at which point 25 μL of Caspase-8 or Caspase-9 or Caspases-3/7 reagents were added to each well. The plate was gently mixed for 30 seconds and then incubated for 30 minutes at room temperature. The luminescence was measured using the luminometer Infinite M200 (Tecan, Männedorf, Switzerland).
(§5) In order to determine whether the observed antiproliferative activity of the prenylflavonoids and naringenin could be explained at least in part by the induction of apoptosis, the activities of initiator (caspase-8 and caspase-9) as well as effector caspases (caspases-3/7) were assessed in the SW620 cells, which were exposed to the studied compounds for 4, 8, and 24 h, with the activities of the caspases measured using a luminescence assay.
(§6) Further, we decided to determine the influence of combinations of the studied flavonoids with cytostatics on ROS formation and the activity of caspases in SW620 cells. Combination effects of flavonoids and cytostatics were investigated at equipotent concentrations of the IC50 values for each compound. ROS production was monitored using a DCFH-DA assay at several time points (0.5, 1, 4, 8, and 24 h) during a 24-hour incubation. The activities of caspases-8, -9, and -3/7 were assessed using a luminescence assay kit at 4, 8, and 24 h of incubation.

[4] = tested on: proliferating CaCo-2 cells; assay: Neutral red uptake (NRU) cell viability assay, 72 h; format: cell-based; conditions: Homo sapiens, CaCo-2 proliferating, 72 h of exposition
Method: (§7) The CaCo-2 cell line was cultured in EMEM medium supplemented with 10% heat-inactivated FBS, 1% non-essential amino acids, 1% glutamine, and 0.5% penicillin/streptomycin. The cells were grown in 96-well plates for 3 (proliferating cells) and 21 (differentiated cells) days in a humidified atmosphere containing 5% CO2 at 37 °C and subcultured every 3 days.
as §1, §2, §3

[5] = tested on: differentiated CaCo-2 cells; assay: as above; format: cell-based; conditions: Homo sapiens, CaCo-2 differentiated, 72 h of exposition
Method: as §7, §1, §2, §3

SW620 cells [6] = assay: Cellular ROS formation (H2DCF-DA oxidation); format: cell-based, human; conditions: for ROS production vs control: SW620, compound alone at its IC50, 0.5-24 h incubation
Method: To assess ROS generation in SW620 cells, a measurement of 2′,7′-dichlorodihydrofluorescein-diacetate (H2DCF-DA) oxidation was used. Cells (seeded in a 96-well plate at a density of 2500 cells/well) were washed with PBS buffer and incubated with 100 μL of 5 μM H2DCF-DA in Hank’s balanced salt solution (HBSS). […] Finally, fluorescence intensity was measured at the excitation and emission wavelengths of 485 nm/525 nm for 50 min at 37 °C using the microplate reader Infinite M200 (Tecan, Männedorf, Switzerland). The cells incubated in HBSS with DMSO only (as a solvent) were used as untreated control samples, while those incubated in the presence of 3% H2O2 were used as a positive control.
As is generally accepted, cancer cells generate more ROS than do normal cells and at the same time, they are sensitive to the effect of agents which augment oxidative stress and thus push these stressed cells beyond their limit. Therefore, the pro-oxidative effect of prenylflavonoids and NAR was tested in the SW620 cells in order to elucidate the observed antiproliferative effects of these compounds. […] ROS production was measured in the SW620 cells incubated with prenylflavonoids or NAR at a concentration equal to their IC50 using a DCFH-DA assay. ROS production was monitored during 24-hour incubation at several time points (0.5, 1, 4, 8, and 24 h).
as §6

caspase-8 in SW620 cells = assay: Caspase-Glo assay, initiator caspase-8 activity; format: cell-based, human
Method: as §4, §5, §6

caspase-9 in SW620 cells = assay: Caspase-Glo assay, initiator caspase-9 activity; format: cell-based, human
Method: as §4, §5, §6

[7] = Homo sapiens, SW-620, SW620, 72 h of exposition
[8] = SW620, combination with 5-FU, OxPt or IRT
[9] = SW620, 4-h incubation, compared to cytostatic alone
[10] = SW620, 4-hour incubation, compared to cytostatic alone

Structure (SMILES)	IC50 (SW480 cells; Homo sapiens)	IC50 (SW620 cells [1]; [7])	Caspase-3/7 activity, combination with 5-FU [3]	IC50 [4]	IC50 [5]	ROS production vs control (SW620 cells [6])	also measured
COc1cc(O)c(CC=C(C)C)c(O)c1C(=O)/C=C/c1ccc(O)cc1 [XH, Xanthohumol]	3.6 µM	7.3 µM	marked increase	6.2 µM	39.3 µM	strong pro-oxidative effect within the entire 24-hour incubation	IC50 [2]: 3.6 to 7.3 µM; Caspase-3/7 activity, combination with IRT [3]: marked increase
O=C1C[C@@H](c2ccc(O)cc2)Oc2cc(O)cc(O)c21 [NAR, naringenin, reference compound]	> 200 µM	> 200 µM	–	–	–	only a mild pro-oxidative effect	Caspase-8 activity, combined with all the cytostatics (caspase-8 in SW620 cells; [8]): marked induction; Suppression of effector caspases (3/7) activity, combined with all the cytostatics ([3]; SW620, combination with 5-FU, OxPt or IRT, all time intervals): up to 61.4%; Inhibition of caspases-3/7 ([3]; SW620, compound alone, 4, 8 and 24 h, vs untreated control): up to 52.7%; ROS formation, combination with OxPt (SW620 cells [6]; SW620, flavonoid + OxPt at IC50 concentrations, all time points, vs control and flavonoid alone): feeble yet significant (p < 0.05) increase in ROS formation; ROS formation, combination with IRI (SW620 cells [6]; SW620, flavonoid + irinotecan at IC50 concentrations, all time points, vs control and flavonoid alone): feeble yet significant (p < 0.05) increase in ROS formation; Decrease in caspase-9 activity (caspase-9 in SW620 cells; SW620, 4 h of exposure, vs untreated control): 19.7%; Caspase-9 activity, combined with all the cytostatics (caspase-9 in SW620 cells; [8]): marked induction
CC(C)=CCc1c(O)cc2c(c1O)C(=O)C[C@@H](c1ccc(O)cc1)O2 [6-PN, 6-prenylnaringenin]	14.8 µM	13.7 µM	–	24 µM	61.9 µM	initially elevated ROS levels in cells and then surprisingly displayed a strong antioxidant effect at the later intervals	–
O=C1[O][Pt]2([NH][C@@H]3CCCC[C@H]3[NH]2)[O]C1=O [OxPt, oxaliplatin]	–	–	–	–	–	–	IC50 (SW480 cells): 1.1 µM; IC50 (SW620 cells [1]; SW620, 72 h of exposition): 1.9 µM
O=c1[nH]cc(F)c(=O)[nH]1 [5-FU, 5-fluorouracil]	22.6 µM	34.9 µM	–	–	–	–	–
CC(C)=CCc1c(O)cc(O)c2c1O[C@H](c1ccc(O)cc1)CC2=O [8-PN, 8-prenylnaringenin]	56.3 µM	24.9 µM	marked increase	48.9 µM	> 100 µM	initially elevated ROS levels in cells and then surprisingly displayed a strong antioxidant effect at the later intervals	Caspase-8 activity, combination with IRT (caspase-8 in SW620 cells; [9]): significantly increased; Caspase-8 activity, combination with OxPt (caspase-8 in SW620 cells; [9]): significantly increased; Caspase-3/7 activity, combination with OxPt [3]: marked increase; Induction of caspases-3/7 activity ([3]; vs untreated control): 44.7%; Caspase-9 activity, combination with IRT (caspase-9 in SW620 cells; [10]): more potent than the respective cytostatics alone; Caspase-9 activity, combination with OxPt (caspase-9 in SW620 cells; [10]): more potent than the respective cytostatics alone
COc1cc(O)c(CC=C(C)C)c2c1C(=O)CC(c1ccc(O)cc1)O2 (centres unmarked) [IXH, isoxanthohumol]	40.4 µM	43.7 µM	marked increase	47 µM	> 100 µM	strong pro-oxidative effect within the entire 24-hour incubation	Caspase-8 activity, combination with 5-FU (caspase-8 in SW620 cells; [9]): significantly increased; Caspase-8 activity, combination with OxPt (caspase-8 in SW620 cells; [9]): significantly increased; Caspase-3/7 activity, combination with IRT [3]: marked increase; Caspase-3/7 activity, combination with OxPt [3]: marked increase; Induction of caspases-3/7 activity ([3]; vs untreated control): 50.5%; Caspase-9 activity, combination with 5-FU (caspase-9 in SW620 cells; [10]): more potent than the respective cytostatics alone
CCc1c2c(nc3ccc(OC(=O)N4CCC(N5CCCCC5)CC4)cc13)-c1cc3c(c(=O)n1C2)COC(=O)[C@]3(O)CC [IRT, irinotecan]	1.7 µM	25.4 µM	–	–	–	–	–

— publication PMC6520918, “Antiproliferative Effects of Hop-derived Prenylflavonoids and Their Influence on the Efficacy of Oxaliplatine, 5-fluorouracil and Irinotecan in Human ColorectalC Cells” (Nutrients, 2019)
